{"source": "patent US20220409510A1", "about": "“Polypeptides And Methods For Improving Skin Conditions” (Interk Peptide Therapeutics Limited, priority 2018, published 2022)", "key": {"CREB-S133": {"test_system": "CREB-S133", "assay": "CREB phosphorylation in primary keratinocytes after solar simulated UV-irradiation (western blot)", "assay_type": "cell-based", "settings": "0.1, 1 and 5 μM added immediately after ssUV, FIG. 3A", "experimental": "The influence of the polypeptide IK34720 (SEQ ID NO: 3) on CREB phosphorylation was assessed using the following protocol.\nKeratinocytes were harvested and cultured as previously described (Gupta et al., J Invest Dermatol, 2007, 127(3):707-215). Keratinocytes, (passages 1-5) from 3 independent donors were used in the experiments illustrated in FIG. 3.\nPositive control treatment (denoted “D” in FIG. 3) was prepared by solubilizing Calcitriol (1,25-dihydroxyvitamin D3 (1,25(OH)2D3)—Cayman Chemical, Mich., USA) in 100% spectroscopic ethanol (Merck, Darmstadt, Germany) and the final concentration was determined by spectroscopy (NanoDrop 2000, Thermo Fisher Scientific, Mass., USA). The polypeptide IK34720 (SEQ ID NO: 3) was solubilised in phosphate buffered saline (PBS) to a concentration of 1 mM at pH 7.2. A vehicle (denoted as “V” in FIG. 3) constituting 0.1% (v/v) spectroscopic ethanol and 0.1% (v/v) PBS was prepared for use as a negative control.\nCultured cells were irradiated by solar simulated UV-irradiation (ssUV) using an Oriel 1000W xenon-arc lamp (Stratford, Conn., USA). Irradiation was administered at an energy level of 400 mJ/cm^2 for UVB and 3600 mJ/cm^2 for UVA (total 4000 mJ/cm^2), measured by an OL754 radiometer (Optronics Laboratories Inc., Orlando, Fla.). This dosage equates to approximately 4 min irradiation of the sun at 12 noon in October in Sydney, Australia. […]"}, "[1]": {"test_system": "wound (skin punch, ID 12 mm)", "assay": "Murine wound model, percentage closure of the wound", "assay_type": "in vivo, ICR mice", "settings": "topical 10 ug per mouse daily for 10 consecutive days; Day 5 to Day 11; vs negative control (PBS)", "text": "FIGS. 1 and 2 illustrate the effect of polypeptides IK34720 (SEQ ID NO: 3—RSKAKNPLYRRRRRRRRR) (FIG. 1) and the dextro-reverso sequence IK236770 (SEQ ID NO: 4—rrrrrrrrrylpnkaksr) (FIG. 2), on wound healing over 10 days in a murine wound model in accordance with the following protocol.\nThree groups of 8 male ICR mice with a mean weight of 22 g (±2 g) were used in the present study. The animals were housed in individual cages during the study. Under isoflurane gas anaesthesia, the shoulder and back region of each animal was shaved and a sharp punch (ID 12 mm) was used to induce a wound by removing the skin, including panniculus carnosus and adherent tissues on Day 1.\nFollowing induction of the wound the polypeptides IK34720 and IK236770 were topically administered to the site of the wound at a dosage of 10 μg per animal. […] An additional group which comprised the administration of Phosphate buffered Saline (PBS) at pH 7.4 was used as a negative control.\nThe wound healing was analysed on Days 5, 7, 9 and 11 by tracing the periphery of the wound onto clear plastic sheets with the wound area calculated by an Image analyzer ProPlus (Media Cybernetics, Version 4.5.0.29. The percentage closure of the wound (%) was calculated. Percentage closure of the wound was determined on 5, 7, 9 and 11. ANOVA and Dunnett's test were applied to test significant significance between the treated groups (peptide and positive control groups) and the negative control group at each time point of measurement. Differences were considered statistically significant at P<0.05, and are indicated by *."}, "dermal fibroblasts": {"test_system": "dermal fibroblasts", "assay": "TBARS lipid peroxidation assay in UV irradiated dermal fibroblasts", "assay_type": "cell-based", "settings": "highest concentration (5 μM) of peptide; FIG. 19", "experimental": "The ability of the polypeptide RSKAKNPLYRRRRRRRRR to alter UV-induced oxidative damage of cell-derived lipids was examined using the TBARS thiobarbituric acid-reactive substances (TBARS) lipid peroxidation assay.\nAfter irradiation or sham-irradiation of dermal fibroblasts, supernatants (900 μL) were collected. In brief, 90 μL of butylated hydroxytoluene (2% w/w in ethanol) was added and samples kept frozen (−20° C.) until the TBARS assay. Petri dishes were washed twice with 1 mL of HBSS, cells scraped in 600 μL of water and 60 μL of 0.5% aqueous Triton X100 added to this solution, for protein determination carried out by the Lowry method (Lowry OH et al, J. Biol. Chem., 1951, 193:265-275). TBARS were fluorometrically assayed as described (Morlière P et al, Biochim. Biophys. Acta, 1991, 1084:261-268). Briefly, thawing samples were heated in the presence of thiobarbituric acid in acidic conditions, and TBARS extracted with 1-butanol and fluorometrically quantified (λexc=515 nm and λem=550 nm). Tetraethoxypropane, which quantitatively yields the malondialdehyde-thiobarbituric acid adduct in the assay conditions, was used for calibration. TBARS values, expressed in malondialdehyde (MDA) equivalents, were normalized to the cell protein for each Petri dish. Each TBARS determination was performed in triplicate (e.g., with three Petri dishes per data point)."}, "[2]": {"test_system": "CPDs in human skin explants", "assay": "CPD formation in human skin explants after UV-irradiation", "assay_type": "cell-based", "experimental": "Human skin removed at elective surgery was cleaned, dissected and cut into pieces of approx. 5 mm×5 mm. Each piece was placed in a well of a 96 well plate, with individual plates prepared to assess the effects 3 hrs post treatment. All samples were performed in triplicate for each treatment. Skin was subjected to UV-radiation from solar-simulated UV source for 1.5 h (UVR), or non-irradiation (SHAM). Given that human skin is thicker than mouse skin, human skin explants were exposed to a radiation dose three times higher than that used for mouse skin, i.e., 20 J/cm2 versus 7 J/cm2, respectively, and the output spectrum of the laboratory solar simulator has previously been reported (Rybchyn MS et al, J Invest Dermatol. 2018 May; 138(5):1146-1156) and treated immediately after with a vehicle control, Calcitriol (1 nM) or the polypeptide IK34720 (SEQ ID NO: 3) at concentrations of 50 μM, 250 μM or 500 uM.\nSamples harvested at 3 hrs were fixed, section, stained and quantified as described in Example 5."}}}
{"sequence": "RSKAKNPLYRRRRRRRRR [IK34720, 18-residue polypeptide: … with a C-terminal polyarginine region of 8 arginines]", "values": [{"measurement": "UV-induced phosphorylation of CREB S-133", "setting": "CREB-S133", "result": "inhibits UV-induced phosphorylation of serine at position 133 of CREB"}, {"measurement": "wound closure percentage", "setting": "[1]", "result": "statistically significant increase (P<0.05) in wound closure percentage"}, {"measurement": "significant difference in TRS (TBA reactive substances) between Sham and UV irradiation", "setting": "dermal fibroblasts", "result": "not seen"}, {"measurement": "percentage of CPD positive cells", "setting": "[2]; 500 μM, 3 hrs, two individuals, FIG. 13A and B", "result": "statistically significantly reduced"}, {"measurement": "cells having CPDs (stained cells)", "setting": "[2]; 3 hrs post irradiation/treatment, Calcitriol 1 nM, IK34720 50, 250 or 500 uM, FIG. 12", "result": "fewer stained cells"}]}
